Reference: patent US10815276B2, “Cell penetrating peptides and methods of making and using thereof” (Entrada Therapeutics, Inc., priority 2014, dated 2020)
Starred links: 1 amine or outer side, 2 acyl side, 3 side chain; linkers in the order of their positions; H or OH if unused. Positions of bridges follow the written chain, without caps; N, C: chain ends. Non-standard residues stand in square brackets, D forms with d. Residues, ends and D or L forms follow the SMILES beside them. Trimesoyl = O=C(c1cc(C(=O)[*:2])cc(C(=O)[*:3])c1)[*:1]; Phe(4-F) = N[C@@H](Cc1ccc(F)cc1)C(=O)O; 2Nal = N[C@@H](Cc1ccc2ccccc2c1)C(=O)O; NMeF = CN[C@@H](Cc1ccccc1)C(=O)O; Pip = O=C(O)[C@@H]1CCCCN1; Dap = NC[C@H](N)C(=O)O; Sar = CNCC(=O)O

How the values were obtained:
PTP1B = biological target: T1, PTP1B (Homo sapiens, UniProt P18031); test: PTP inhibition assay (pNPP); assay type: biochemical; conditions: pNPP 0-24 mM; read-out: K1 (competitive inhibition constant)
T1 construct: The gene coding for the catalytic domain of PTP1B (amino acids 1-321) was amplified; made in house; host or cells: prokaryotic vector pET-22b(+)-ybbR
T1 sequence (P18031 1-321): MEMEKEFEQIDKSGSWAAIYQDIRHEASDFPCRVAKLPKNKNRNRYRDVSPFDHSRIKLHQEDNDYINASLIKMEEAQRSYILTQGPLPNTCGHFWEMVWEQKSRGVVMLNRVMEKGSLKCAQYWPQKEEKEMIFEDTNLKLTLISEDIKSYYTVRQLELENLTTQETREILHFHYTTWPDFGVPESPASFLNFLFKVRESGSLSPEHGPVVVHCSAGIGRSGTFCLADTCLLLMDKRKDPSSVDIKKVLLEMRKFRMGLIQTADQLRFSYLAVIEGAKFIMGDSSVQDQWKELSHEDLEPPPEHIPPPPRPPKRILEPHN
Description: PTP assays were performed in a quartz microcuvette (total volume 150 μL). The reaction mixture contains 100 mM Tris-HCl, pH 7.4, 50 mM NaCl, 2 mM EDTA, 1 mM TCEP, 0-1 μM of PTP inhibitor, and 500 μM para-nitrophenyl phosphate (pNPP). The enzymatic reaction was initiated by the addition of PTP (final concentration 15-75 nM) and monitored continuously at 405 nm on a UV-VIS spectrophotometer. Initial rates were calculated from the reaction progress curves (typically <60 s). The half-maximal inhibition constant (IC50) was defined as the concentration of an inhibitor that reduced the enzyme activity to 50% and was obtained by plotting the rates (V) against the inhibitor concentration [I] and fitting the data against the equation
[formula] where V0 is the enzymatic reaction rate in the absence of inhibitor. […] The reaction rate (V) was plotted against the pNPP concentration ([S]) and fitted against the equation
[formula] to obtain the Michaelis constant K. The Ki value was obtained by plotting the K values against the inhibitor concentration [I] and fitted to equation
[formula] where K0 is the Michaelis constant in the absence of inhibitor ([I]=0).

Pin1 [1] = biological target: T2, Pin1 (Homo sapiens, UniProt Q13526, S16A/Y23A); test: Fluorescence anisotropy binding to Pin1
T2 construct: The full-length human S16A/Y23A mutant Pin1 was expressed and purified from E. coli; made in house
T2 sequence (Q13526 whole entry S16A/Y23A): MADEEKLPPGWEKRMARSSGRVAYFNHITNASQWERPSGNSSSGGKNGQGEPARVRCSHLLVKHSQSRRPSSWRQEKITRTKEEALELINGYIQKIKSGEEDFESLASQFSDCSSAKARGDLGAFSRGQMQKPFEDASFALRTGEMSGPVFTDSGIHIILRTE
Description: The gene coding for the catalytic domain of PTP1B (amino acids 1-321) was amplified by the polymerase chain reaction using PTP1B cDNA as template and oligonucleotides 5′-[…]-3′ and 5′-[…]-3′ as primers. […] Expression and purification of the ybbR-tagged PTP1B were carried out as previously described (Ren, L et al. Biochemistry 2011, 50, 2339-2356). […] The reaction mixture was passed through a G-25 fast-desalting column equilibrated in 30 mM HEPES, pH 7.4, 150 mM NaCl to remove any free dye molecules. The full-length human S16A/Y23A mutant Pin1 was expressed and purified from E. coli as previously described (Liu, T et al. J. Med. Chem. 2010, 53, 2494-2501).
FA experiments were carried out by incubating 100 nM FITC-labeled peptide with varying concentrations of protein in 20 mM HEPES (pH 7.4), 150 mM NaCl, 2 mM magnesium acetate, and 0.1% bovine serum albumin (BSA) for 2 h at room temperature. The FA values were measured on a Molecular Devices Spectramax M5 plate reader, with excitation and emission wavelengths at 485 and 525 nm, respectively. Equilibrium dissociation constants (KD) were determined by plotting the FA values as a function of protein concentration and fitting the curve to the following equation:
[formula] where Y is the FA value at a given protein concentration x, L is the peptide concentration, Qb/Qf is the correction factor for fluorophore-protein interaction, Amax is the maximum FA value when all of the peptides are bound to protein, while Amin is the minimum FA value when all of the peptides are free. FA competition assay was performed by incubating 100 nM FITC-labeled Pin1 inhibitor 5 with 1 μM Pin1, followed by the addition of 0-5 μM unlabeled inhibitor. The FA values were measured similarly on a pate reader. IC50 values were obtained by plotting the FA values against the competitor concentration and curve fitting using the four-parameter dose-response inhibition equation (Prism 6, GraphPad).

Pin1 [2] = biological target: T2, Pin1; test: Pin1 binding by FA (FITC-labeled peptides); conditions: FITC-labeled peptide, FA; read-out: KD
Jurkat cells = test: In cellulo fluorimetric caspase assay; assay type: cell-based; conditions: staurosporin-treated cells, 5 μM peptide, 10-h period
Description: 100 μL of Jurkat cell suspension (5×10^5 cells/mL) was seeded in 96-well plate one hour prior to the experiment. Ten μL of staurosporine stock solution (10 μM) was added into half of the wells to induce apoptosis, while 10 μL of media was added to the other wells. After 1 h incubation, caspase-3 fluorogenic substrates were added to the cells to a final concentration of 5 μM. The fluorescence of the released coumarin was measured on the Spectramax M5 plate reader with excitation and emission wavelengths at 360 and 440 nm at various times points (0-6 h). The fluorescence unit (FU) increases between induced and uninduced cells were plotted against the time to present caspase-3 activities measured using various fluorogenic substrates in living cell in real-time. Three independent sets of experiments, each performed in triplicate, were conducted.
Jurkat cells were pretreated with the kinase inhibitor staurosporin to induce caspase activities and thus apoptosis (Belmokhtar, C A et al. Biochem. J. 1996, 315, 21). These cells were then incubated with peptides 3-7 and the amount of Amc released was monitored at various time points (0-10 h). […] Peptide 4 produced the fastest fluorescence increase, reaching 459 fluorescence units (FU), followed by peptides 7 and 6. […] This slow rate of AMC release can be attributed to hydrolysis by other intracellular proteases and peptidases. Consistent with this interpretation, pretreatment of Jurkat cells with a pancaspase inhibitor Z-VAD(OMe)-FMK (Slee, E A et al. Biochem J. 1996, 315, 21) followed by incubation with peptide 4 released AMC at a rate that was similar to that of peptide 5 alone. One explanation of the above observations is that both peptides 4 and 5 can enter the cell interior efficiently, but only peptide 4 can be converted into the linear caspase substrate inside the cells.

[3] = Serum stability test (25% human serum); assay type: in vitro ADME; conditions: 37° C.
Description: The stability tests were carried by modifying a previously reported procedure (Nguyen, L T et al. […] At various time points (0-6 h), 200-μL aliquots were withdrawn and mixed with 50 μl of 15% trichloroacetic acid and incubated at 4° C. overnight. The final mixture was centrifuged at 15,000 rpm for 10 min in a microcentrifuge, and the supernatant was analyzed by reversed-phase HPLC equipped with a C18 column (Waters). The amount of remaining peptide (%) was determined by integrating the area underneath the peptide peak (monitored at 214 nm) and compared with that of the control reaction (no serum).

HeLa cells = test: FACS uptake of FITC-labeled peptides; assay type: cell-based, human; conditions: 5 μM, 2 h

C[C@@H]1NC(=O)[C@H](CCCNC(=N)N)NC(=O)[C@H](Cc2ccc3ccccc3c2)NC(=O)[C@@H]2CCCCN2C(=O)[C@@H]([C@H](C)O)NC(=O)CN(C)C(=O)[C@@H](C)NC(=O)c2cc3cc(c2)C(=O)NC[C@H](NC(=O)[C@@H](C)NC1=O)C(=O)N[C@@H](Cc1ccccc1)C(=O)N[C@@H](Cc1ccc2ccccc2c1)C(=O)N[C@@H](CCCNC(=N)N)C(=O)N[C@@H](CCCNC(=N)N)C(=O)N[C@@H](CCCNC(=N)N)C(=O)N[C@@H](CCCNC(=N)N)C(=O)N[C@H](C(=O)N[C@@H](CCCCN)C(N)=O)CNC3=O [Peptide 2, bicyclo[Tm-(D-Ala-Sar-D-Thr-Pip-Nal-Arg-Ala-D-Ala)-Dap-(Phe-Nal-Arg-Arg-Arg-Arg-Dap)]-Lys] ([dA][Sar][dT][Pip][2Nal]RA[dA][Dap]F[2Nal]RRRR[Dap]K-NH2; linker N-9-16 via Trimesoyl)
Ki (PTP1B): 54 nM
Reduction of potency vs inhibitor 7 (Pin1 [1]): ~10 fold
Kd (Pin1 [2]): 620 nM

C[C@@H]1NC(=O)[C@H](CCCNC(=N)N)NC(=O)[C@H](Cc2ccc3ccccc3c2)NC(=O)[C@@H]2CCCCN2C(=O)[C@@H](CC(=O)O)NC(=O)CN(C)C(=O)[C@@H]2CCCN2C(=O)c2cc3cc(c2)C(=O)NC[C@H](NC(=O)[C@@H](C)NC1=O)C(=O)N[C@@H](Cc1ccccc1)C(=O)N[C@@H](Cc1ccc2ccccc2c1)C(=O)N[C@@H](CCCNC(=N)N)C(=O)N[C@@H](CCCNC(=N)N)C(=O)N[C@@H](CCCNC(=N)N)C(=O)N[C@@H](CCCNC(=N)N)C(=O)N[C@H](C(=O)N[C@@H](CCCCN)C(N)=O)CNC3=O [Peptide 3, bicyclo[Tm-(Pro-Sar-D-Asp-Pip-Nal-Arg-Ala-D-Ala)-Dap-(Phe-Nal-Arg-Arg-Arg-Arg-Dap)]-Lys] (P[Sar][dD][Pip][2Nal]RA[dA][Dap]F[2Nal]RRRR[Dap]K-NH2; linker N-9-16 via Trimesoyl)
Fluorescence increase (released Amc) (Jurkat cells): little fluorescence increase

C[C@@H]1NC(=O)[C@H](CCCNC(=N)N)NC(=O)[C@H](Cc2ccc3ccccc3c2)NC(=O)[C@@H]2CCCCN2C(=O)[C@@H]([C@H](C)O)NC(=O)[C@H](Cc2ccc(F)cc2)NC(=O)[C@@H](Cc2ccccc2)NC(=O)c2cc3cc(c2)C(=O)NC[C@H](NC(=O)[C@@H](C)NC1=O)C(=O)N[C@@H](Cc1ccccc1)C(=O)N[C@@H](Cc1ccc2ccccc2c1)C(=O)N[C@@H](CCCNC(=N)N)C(=O)N[C@@H](CCCNC(=N)N)C(=O)N[C@@H](CCCNC(=N)N)C(=O)N[C@@H](CCCNC(=N)N)C(=O)N[C@H](C(=O)N[C@@H](CCCCN)C(N)=O)CNC3=O [Peptide 4, bicyclo[Tm-(D-Phe-Fpa-D-Thr-Pip-Nal-Arg-Ala-D-Ala)-Dap-(Phe-Nal-Arg-Arg-Arg-Arg-Dap)]-Lys] ([dF][Phe(4-F)][dT][Pip][2Nal]RA[dA][Dap]F[2Nal]RRRR[Dap]K-NH2; linker N-9-16 via Trimesoyl; C-terminus assumed)
Fluorescence increase (released Amc) (Jurkat cells): 459 FU

C[C@@H]1NC(=O)[C@H](CCCNC(=N)N)NC(=O)[C@H](Cc2ccc3ccccc3c2)NC(=O)[C@@H]2CCCCN2C(=O)[C@@H]([C@H](C)O)NC(=O)CNC(=O)[C@H](Cc2ccccc2)N(C)C(=O)c2cc3cc(c2)C(=O)NC[C@H](NC(=O)[C@@H](C)NC1=O)C(=O)N[C@@H](Cc1ccccc1)C(=O)N[C@@H](Cc1ccc2ccccc2c1)C(=O)N[C@@H](CCCNC(=N)N)C(=O)N[C@@H](CCCNC(=N)N)C(=O)N[C@@H](CCCNC(=N)N)C(=O)N[C@@H](CCCNC(=N)N)C(=O)N[C@H](C(=O)N[C@@H](CCCCN)C(N)=O)CNC3=O [Peptide 5, bicyclo[Tm-(Mpa-Gly-D-Thr-Pip-Nal-Arg-Ala-D-Ala)-Dap-(Phe-Nal-Arg-Arg-Arg-Arg-Dap)]-Lys] ([NMeF]G[dT][Pip][2Nal]RA[dA][Dap]F[2Nal]RRRR[Dap]K-NH2; linker N-9-16 via Trimesoyl; C-terminus assumed)
Fluorescence increase (released Amc) (Jurkat cells): 99 FU

N=C(N)NCCC[C@H](NC(=O)[C@H](CCCNC(=N)N)NC(=O)[C@H](CCCNC(=N)N)NC(=O)[C@H](CCCNC(=N)N)NC(=O)[C@H](CCCNC(=N)N)NC(=O)[C@H](CCCNC(=N)N)NC(=O)[C@H](CCCNC(=N)N)NC(=O)[C@H](CCCNC(=N)N)NC(=O)[C@@H](N)CCCNC(=N)N)C(N)=O [Peptide R9]
half-life at 50 μM [3]: ~30 min

N=C(N)NCCC[C@H](NC(=O)[C@H](CCCNC(=N)N)NC(=O)[C@H](CCCNC(=N)N)NC(=O)[C@H](CCC(N)=O)NC(=O)[C@H](CCCNC(=N)N)NC(=O)[C@H](CCCNC(=N)N)NC(=O)[C@H](CCCCN)NC(=O)[C@H](CCCCN)NC(=O)[C@H](CCCNC(=N)N)NC(=O)CNC(=O)[C@@H](N)Cc1ccc(O)cc1)C(N)=O [Tat]
half-life [3]: ~30 min

fluorescein isothiocyanate [FITC, reference compound]
Mean fluorescence intensity (MFI), total intracellular FITC fluorescence (HeLa cells): 1200 arbitrary units (AU)
